In PubChem BioAssay (NCI):
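These data come from cells grown in 96-well plates and exposed to compound for 48 hours at five concentrations. GI50: concentration for 50% inhibition of growth. TGI is the concentration that stops growth completely.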

System: MDA-MB-468 breast
Assay: NCI tumour cell line growth inhibition, 48 h

Row | SMILES | GI50 | TGI
1 | COc1cccc(C2=C(c3c(C)n(C)c4ccccc34)C(=O)NC2=O)c1 | 7.67 µM | > 25 µM
2 | CC(=O)OC[C@]12CC[C@@H](C(=O)CBr)[C@@H]1[C@H]1CC[C@@H]3[C@@]4(C)CCCNC(C)(C)[C@@H]4CC[C@@]3(C)[C@]1(C)CC2 | 2.12 µM | 5.66 µM
3 | COc1ccc(-c2nc(-c3ccccc3)c(-c3ccccc3)[nH]2)cc1OC1CCCC1 | > 100 µM | > 100 µM
4 | CN(C)C(=S)/N=c1\ssc(=S)n1Cc1cccnc1 | 3.07 µM | > 100 µM
5 | O=C(Nc1cccc(-n2cc(-c3ccncc3)c(-c3ccc(Cl)c(O)c3)n2)c1)c1ccc(N2CCOCC2)c(C(F)(F)F)c1 | 7.04 µM | 26.6 µM
6 | c1csc(-c2cn3nc(-c4c[nH]c5ccccc45)sc3n2)c1 | 2.92 µM | 27.8 µM
7 | CCCNC(=O)CCC(C)C1CCC2C3C(C[C@H](OC(C)=O)[C@]12C)[C@@]1(C)CCC2(C[C@H]1C[C@H]3OC(C)=O)OOC1(CC[C@]3(C)C4C[C@H](OC(C)=O)[C@]5(C)C(C(C)CCC(=O)NCCC)CCC5C4[C@H](OC(C)=O)C[C@@H]3C1)OO2 (some centres undefined) | 24.9 µM | > 100 µM
8 | Cc1cc(C(=C2C=CC(=Nc3ccccc3)C=C2)c2ccc(Nc3ccccc3)cc2)ccc1N | 0.332 µM | 1.29 µM
9 | C[C@]12CCc3sc(NCCc4ccccc4)nc3C1=CC[C@@H]1[C@@H]2CC[C@]2(C)C(=O)CC[C@@H]12 | 2.99 µM | 10.3 µM
10 | CC1OC(n2c3ccccc3c3c4c(c5c6ccccc6[nH]c5c32)C(=O)N(CCN[C@@H]2CCC[C@H]2N)C4=O)CC(O)C1O (some centres undefined) | 1.15 µM | 3 µM
11 | O=S(=O)(Nc1ccc(Br)c(Cl)c1)c1ccc(-c2cnc(C3CC3)o2)cc1 | 0.263 µM | 2.86 µM
12 | O=c1ccn(C2CC(O)C(CO)O2)c(=O)[nH]1 (centres undefined) | > 5000 µM | > 5000 µM
13 | C=C1/C(=C\C=C2/CCC[C@]3(C)[C@@H]([C@H](C)CCCC(C)(C)O)CC[C@@H]23)C[C@@H](OC(=O)CBr)C[C@@H]1O | 2.56 µM | 7.74 µM
14 | Cc1cc(Cl)cc(NS(=O)(=O)c2ccc(-c3cnc(C4CC4)o3)cc2)c1 | 0.12 µM | 4.44 µM
15 | Cc1cc(NCCN(C(C)C)C(C)C)nc(/N=C(\N)Nc2ccc(Cl)c(C(F)(F)F)c2)n1 | 0.229 µM | 0.595 µM
16 | CN(C)C(=S)/N=c1\ssc(=S)n1Cc1ccccc1 | 0.5 µM | 35.2 µM
17 | O=C1c2cccc(NCCN=Cc3cc([N+](=O)[O-])ccc3O)c2C(=O)c2c(NCCN=Cc3cc([N+](=O)[O-])ccc3O)cccc21 | 1.86 µM | 20.1 µM
18 | CN[C@H](C#Cc1c(F)ccc2c1/C(=C/c1[nH]ccc1OC)C(=O)N2)CO | 0.476 µM | 1.45 µM
19 | COC(=O)[C@@]12OC[C@]34[C@H]([C@@H](O)[C@@H]1O)[C@@]1(C)[C@H](O)C(=O)C=C(C)[C@@H]1C[C@H]3OC(=O)C(OC(C)=O)[C@@H]24 (some centres undefined) | 0.0208 µM | 0.0624 µM
20 | CCCc1cc(=O)[nH]c(-n2nc(C)cc2C)n1 | 4.77 µM | > 100 µM
21 | CNCCCn1c2c(c3ccc([N+](=O)[O-])cc3c1=O)C(=O)c1cc(OC)cnc1-2 | 0.0335 µM | 0.189 µM
22 | Nc1nc(N)c2nc(CNc3ccc(C(=O)NC(CC(=O)O)C(=O)O)cc3)cnc2n1 (centres undefined) | 1.37 µM | > 100 µM
23 | COc1cccc(-c2nn(-c3ccccc3)cc2-c2ccnc(NCCCNC(=O)Nc3ccc(Cl)c(Cl)c3)c2)c1 | 1.92 µM | 4.34 µM
24 | CN1CCN(CCOc2ccc(-c3cnc4c(-c5ccc(C(F)(F)F)cc5)cnn4c3)cc2)CC1 | 1.36 µM | 2.95 µM
25 | COc1ccc(C2CC(C)(O)Oc3cc4c(cc32)OCO4)cc1 (centres undefined) | 18.9 µM | 55.7 µM
26 | CCOC(=O)c1cc2c(n1Cc1cccc(OC)c1)-c1oncc1CCC2 | 0.732 µM | > 82.8 µM
27 | COc1ccc(C(=O)/C=C/c2cccc([N+](=O)[O-])c2)c(OC)c1 | 1.09 µM | 3 µM
